Tests used:
[1] = target: Carbonic anhydrase 5A, mitochondrial (Homo sapiens, UniProt P35218)
[2] = target: Carbonic anhydrase 5B, mitochondrial (Homo sapiens, UniProt Q9Y2D0)
Carbonic anhydrase 5B, mitochondrial, sequence (Q9Y2D0 whole entry): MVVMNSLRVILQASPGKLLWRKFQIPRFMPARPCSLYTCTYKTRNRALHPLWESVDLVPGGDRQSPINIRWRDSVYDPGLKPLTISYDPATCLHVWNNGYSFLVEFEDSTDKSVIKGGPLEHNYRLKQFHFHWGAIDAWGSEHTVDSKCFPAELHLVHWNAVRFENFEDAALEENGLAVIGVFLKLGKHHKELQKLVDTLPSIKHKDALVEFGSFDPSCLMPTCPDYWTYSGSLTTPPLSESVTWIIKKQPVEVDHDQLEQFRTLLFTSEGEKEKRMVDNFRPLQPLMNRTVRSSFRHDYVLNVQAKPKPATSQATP

Carbonic anhydrase 5A, mitochondrial, sequence (P35218 whole entry): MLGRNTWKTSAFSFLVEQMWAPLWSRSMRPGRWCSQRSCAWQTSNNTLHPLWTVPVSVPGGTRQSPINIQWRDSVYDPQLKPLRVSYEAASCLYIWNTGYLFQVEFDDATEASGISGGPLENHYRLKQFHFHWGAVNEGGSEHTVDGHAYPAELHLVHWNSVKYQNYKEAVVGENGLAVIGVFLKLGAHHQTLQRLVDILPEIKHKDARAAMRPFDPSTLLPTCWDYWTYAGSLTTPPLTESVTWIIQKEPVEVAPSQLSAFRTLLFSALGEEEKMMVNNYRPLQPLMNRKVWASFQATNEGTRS

| Structure (SMILES) | Ki [1] | Ki [2] |
| --- | --- | --- |
| NS(=O)(=O)c1ccc(NC(=O)Cc2ccccc2)cc1 | 6.7 nM | 7.9 nM |
| NS(=O)(=O)c1ccc(CCNC(=O)Cc2cccs2)cc1 | 10.2 nM | 8 nM |
| NS(=O)(=O)c1ccc(CNC(=O)Cc2cccs2)cc1 | 9.1 nM | 7.2 nM |
| NS(=O)(=O)c1ccc(NC(=O)Cc2cccs2)cc1 | 7.2 nM | 7 nM |

Source: ChEMBL document CHEMBL1154094, “Carbonic anhydrase inhibitors. Aromatic/heterocyclic sulfonamides incorporating phenacetyl, pyridylacetyl and thienylacetyl tails act as potent inhibitors of human mitochondrial isoforms VA and VB” (Bioorg Med Chem, 2009)
